Data: PubChem BioAssay (NCI)
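96-well plates; 48 h exposure; 5 concentrations. Endpoints by linear interpolation between flanking doses. Not reached: highest tested concentration assigned. TGI is the concentration that stops growth completely.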

Tests used:
Assay in all cases: inhibition of tumour cell growth, NCI panel, 48 h
[1] = tested on: MCF7 breast
[2] = tested on: HS 578T breast
[3] = tested on: HOP-92 NSCLC
[4] = tested on: MOLT-4 leukemia
[5] = tested on: EKVX NSCLC
[6] = tested on: SF-539 CNS
[7] = tested on: MALME-3M melanoma
[8] = tested on: OVCAR-4 ovarian
[9] = tested on: T-47D breast
[10] = tested on: ACHN renal
[11] = tested on: BT-549 breast
[12] = tested on: SNB-75 CNS
[13] = tested on: RPMI-8226 leukemia
[14] = tested on: SF-295 CNS
[15] = tested on: RXF-631 renal
[16] = tested on: DMS 114 small cell lung
[17] = tested on: OVCAR-8 ovarian
[18] = tested on: NCI-H522 lung
[19] = tested on: SF-268 CNS
[20] = tested on: CCRF-CEM leukemia
[21] = tested on: K-562 leukemia
[22] = tested on: HOP-62 NSCLC
[23] = tested on: IGROV1 ovarian
[24] = tested on: MDA-N
[25] = tested on: SK-OV-3 ovarian
[26] = tested on: COLO 205 colon
[27] = tested on: CAKI-1 renal
[28] = tested on: SNB-78 CNS
[29] = tested on: MDA-MB-435
[30] = tested on: SK-MEL-5 melanoma
[31] = tested on: DLD-1 colon
[32] = tested on: A498 renal
[33] = tested on: RXF 393 renal
[34] = tested on: U251 CNS
[35] = tested on: TK-10 renal
[36] = tested on: HCT-15 colon
[37] = tested on: SK-MEL-2 melanoma
[38] = tested on: M14 melanoma
[39] = tested on: NCI-H226 lung
[40] = tested on: DMS 273 small cell lung
[41] = tested on: M19-MEL melanoma
[42] = tested on: UACC-62 melanoma
[43] = tested on: UO-31 renal
[44] = tested on: HT29 colon
[45] = tested on: NCI-H460 lung
[46] = tested on: 786-0 renal
[47] = tested on: LOX IMVI melanoma
[48] = tested on: XF 498 CNS
[49] = tested on: MDA-MB-231 breast
[50] = tested on: LXFL 529 NSCLC
[51] = tested on: SN12C renal
[52] = tested on: HCC-2998 colon
[53] = tested on: OVCAR-5 ovarian
[54] = tested on: NCI-H23 lung
[55] = tested on: OVCAR-3 ovarian
[56] = tested on: SNB-19 CNS
[57] = tested on: PC-3 prostate
[58] = tested on: UACC-257 melanoma
[59] = tested on: SW-620 colon
[60] = tested on: KM12 colon
[61] = tested on: A549 NSCLC
[62] = tested on: HCT-116 colon
[63] = tested on: SK-MEL-28 melanoma
[64] = tested on: KM20L2 colon
[65] = tested on: SR leukemia
[66] = tested on: HL-60(TB) leukemia
[67] = tested on: HOP-18 NSCLC

C=C1C(=O)OC2/C=C(\C)C3OC3/C=C(/C(=O)OC)C(OC(C)=O)C(OC(=O)C(C)(O)C(C)OC(C)=O)C12 (centres undefined)
TGI [1]: 2.67 µM
TGI [2]: 29.7 µM
TGI [3]: 4.1 µM
TGI [4]: 3.68 µM
TGI [5]: 42.9 µM
TGI [6]: 5.43 µM
TGI [7]: 7.88 µM
TGI [8]: 12.6 µM
TGI [9]: 36.8 µM
TGI [10]: 18.2 µM
TGI [11]: 2.37 µM
TGI [12]: 10.6 µM
TGI [13]: 7.9 µM
TGI [14]: 21.5 µM
TGI [15]: 19.6 µM
TGI [16]: 4.01 µM
TGI [17]: 6.92 µM
TGI [18]: 0.871 µM
TGI [19]: 34.1 µM
TGI [20]: 3.04 µM
TGI [21]: 17.1 µM
TGI [22]: 37.5 µM
TGI [23]: 5.71 µM
TGI [24]: 69.1 µM
TGI [25]: 33 µM
TGI [26]: 8.97 µM
TGI [27]: 16.3 µM
TGI [28]: 12.4 µM
TGI [29]: 4.84 µM
TGI [30]: 7.09 µM
TGI [31]: 7.52 µM
TGI [32]: 11.5 µM
TGI [33]: 1.35 µM
TGI [34]: 10.3 µM
TGI [35]: 4.21 µM
TGI [36]: > 34.1 µM
TGI [37]: 20.2 µM
TGI [38]: 8.05 µM
TGI [39]: 15.7 µM
TGI [40]: 10.6 µM
TGI [41]: 22.4 µM
TGI [42]: 4.55 µM
TGI [43]: 15 µM
TGI [44]: 2.88 µM
TGI [45]: 13.3 µM
TGI [46]: 8.27 µM
TGI [47]: 3.61 µM
TGI [48]: 5.6 µM
TGI [49]: 22.6 µM
TGI [50]: 2.36 µM
TGI [51]: 7.02 µM
TGI [52]: 14.4 µM
TGI [53]: 10.7 µM
TGI [54]: 11.2 µM
TGI [55]: 13.9 µM
TGI [56]: 29.1 µM
TGI [57]: 14.8 µM
TGI [58]: 2.34 µM
TGI [59]: 2.25 µM
TGI [60]: 6.36 µM
TGI [61]: 35.5 µM
TGI [62]: 6.14 µM
TGI [63]: 6.14 µM

CC(=O)NC(CCCCNC(=O)N(C)N=O)C(=O)NCc1ccccc1 (centres undefined)
TGI [64]: > 100 µM
TGI [3]: > 100 µM
TGI [4]: > 100 µM
TGI [5]: > 100 µM
TGI [6]: > 100 µM
TGI [7]: > 100 µM
TGI [8]: > 100 µM
TGI [10]: > 100 µM
TGI [12]: > 100 µM
TGI [13]: > 100 µM
TGI [14]: > 100 µM
TGI [15]: > 100 µM
TGI [16]: > 100 µM
TGI [17]: > 100 µM
TGI [18]: > 100 µM
TGI [19]: > 100 µM
TGI [20]: > 100 µM
TGI [21]: > 100 µM
TGI [22]: > 100 µM
TGI [23]: > 100 µM
TGI [25]: > 100 µM
TGI [26]: > 100 µM
TGI [27]: > 100 µM
TGI [28]: > 100 µM
TGI [30]: > 100 µM
TGI [31]: > 100 µM
TGI [32]: > 100 µM
TGI [33]: > 100 µM
TGI [34]: > 100 µM
TGI [35]: > 100 µM
TGI [36]: > 100 µM
TGI [37]: > 100 µM
TGI [38]: > 100 µM
TGI [39]: > 100 µM
TGI [40]: > 100 µM
TGI [41]: > 100 µM
TGI [42]: > 100 µM
TGI [43]: > 100 µM
TGI [44]: > 100 µM
TGI [45]: > 100 µM
TGI [46]: > 100 µM
TGI [47]: > 100 µM
TGI [48]: > 100 µM
TGI [50]: > 100 µM
TGI [51]: > 100 µM
TGI [52]: > 100 µM
TGI [53]: > 100 µM
TGI [54]: > 100 µM
TGI [55]: > 100 µM
TGI [56]: > 100 µM
TGI [58]: > 100 µM
TGI [59]: > 100 µM
TGI [60]: > 100 µM
TGI [61]: > 100 µM
TGI [62]: > 100 µM
TGI [63]: > 100 µM

ClC[Si]12OCCN(CCO1)CCO2
TGI [65]: > 100 µM
TGI [3]: > 100 µM
TGI [4]: > 100 µM
TGI [6]: > 100 µM
TGI [7]: > 100 µM
TGI [10]: > 100 µM
TGI [12]: > 100 µM
TGI [13]: > 100 µM
TGI [14]: > 100 µM
TGI [15]: > 100 µM
TGI [16]: > 100 µM
TGI [17]: > 100 µM
TGI [18]: > 100 µM
TGI [19]: > 100 µM
TGI [66]: > 100 µM
TGI [20]: > 100 µM
TGI [21]: > 100 µM
TGI [23]: > 100 µM
TGI [25]: > 100 µM
TGI [26]: > 100 µM
TGI [27]: > 100 µM
TGI [28]: > 100 µM
TGI [30]: > 100 µM
TGI [31]: > 100 µM
TGI [32]: > 100 µM
TGI [33]: > 100 µM
TGI [34]: > 100 µM
TGI [35]: > 100 µM
TGI [37]: > 100 µM
TGI [39]: > 100 µM
TGI [40]: > 100 µM
TGI [42]: > 100 µM
TGI [43]: > 100 µM
TGI [67]: > 100 µM
TGI [44]: > 100 µM
TGI [45]: > 100 µM
TGI [46]: > 100 µM
TGI [50]: > 100 µM
TGI [51]: > 100 µM
TGI [52]: > 100 µM
TGI [53]: > 100 µM
TGI [54]: > 100 µM
TGI [55]: > 100 µM
TGI [56]: > 100 µM
TGI [58]: > 100 µM
TGI [59]: > 100 µM
TGI [60]: > 100 µM
TGI [61]: > 100 µM
TGI [62]: > 100 µM
TGI [63]: > 100 µM
